We go through 17 compounds from patent publication US20120232070A1, “Use of Indole Derivatives as Nurr-1 Activators for the Application Thereof as a Medicament for the Treatment of Parkinson's Disease” (Laboratoires Fournier SA, priority 2009, published 2012).

Some results are limits rather than exact numbers.

The target in assay [1] is hNurr1_RXRγFL (NURR1/RXRγ heterodimer) (Homo sapiens, UniProt P43354+P48443). The experiment in a line: Transactivation assay in Cos-7 cells, NURR-1-Gal4 / RXRγ, luciferase reporter. It counts as cell-based. Particulars: for Emax: COS-7, read-out: hNurr1_RXRγFL Eff (%), efficacy in % relative to the reference XCT0135908 at 2·10^−5 M (=100%); for EC50: Cos-7 cells, overnight incubation; for hNurr1_RXRγFL Eff (%): efficacy in % relative to the reference XCT0135908 at 2·10^−5 M (=100%). How it is done: (§1) First, the capacity of the compounds according to the invention for acting as an activator of the heterodimers formed by the NURR-1 nuclear receptor and the RXR nuclear receptors was measured by an in vitro assay.
Sequence of hNurr1_RXRγFL (NURR1/RXRγ heterodimer) (P43354 328-598): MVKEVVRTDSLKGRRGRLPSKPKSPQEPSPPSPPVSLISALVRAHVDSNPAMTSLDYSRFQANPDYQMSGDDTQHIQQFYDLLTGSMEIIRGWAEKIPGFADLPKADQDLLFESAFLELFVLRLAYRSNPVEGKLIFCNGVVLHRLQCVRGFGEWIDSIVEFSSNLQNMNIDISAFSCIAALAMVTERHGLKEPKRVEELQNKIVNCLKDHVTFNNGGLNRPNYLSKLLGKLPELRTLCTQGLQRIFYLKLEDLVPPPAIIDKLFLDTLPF
Sequence of hNurr1_RXRγFL (NURR1/RXRγ heterodimer) (P48443 whole entry, the tested form may be a part): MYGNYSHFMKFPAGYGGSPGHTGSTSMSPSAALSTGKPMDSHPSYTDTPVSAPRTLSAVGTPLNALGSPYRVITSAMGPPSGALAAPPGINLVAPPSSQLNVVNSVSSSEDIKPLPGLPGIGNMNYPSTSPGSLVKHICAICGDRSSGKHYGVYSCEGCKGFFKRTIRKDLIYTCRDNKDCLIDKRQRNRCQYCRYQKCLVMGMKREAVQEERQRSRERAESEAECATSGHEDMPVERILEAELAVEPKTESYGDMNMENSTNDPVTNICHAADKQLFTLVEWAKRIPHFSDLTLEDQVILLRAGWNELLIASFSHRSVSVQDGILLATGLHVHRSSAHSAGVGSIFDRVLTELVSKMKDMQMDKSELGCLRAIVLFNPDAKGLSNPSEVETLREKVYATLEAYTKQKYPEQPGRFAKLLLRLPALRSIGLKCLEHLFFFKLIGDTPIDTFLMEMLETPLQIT
(§2) A transactivation assay was used as a primary screening assay. Cos-7 cells were co-transfected with a plasmid expressing a chimera of the human receptor NURR-1-Gal4, a plasmid expressing the human receptor RXR (RXRα or RXRγ receptor) and a reporter plasmid 5Gal4pGL3-TK-Luc. The transfections were performed by means of a chemical agent (Jet PEI).
(§3) The transfected cells were distributed in 384-well plates and left resting for 24 hours.
(§4) After 24 hours, the culture medium was changed. The products according to the invention were added (final concentration between 10^−4 and 3·10^−10 M) to the culture medium. After overnight incubation, luciferase expression was measured after addition of “SteadyGlo” according to the manufacturer's instructions (Promega).
(§5) 4-[[6-Methyl-2-phenyl-5-(2-prop enyl)-4-pyrimidinyl]amino]-benzoic acid (called XCT0135908, which was described in the article by Wallen-Mackenzie et al. published in Genes & Development 17, pages 3036-3047) at 2·10^−5 M (RXR agonist) was used as reference.
(§6) The levels of induction (designated by “efficiency”) were calculated relative to the baseline activity of each heterodimer. The results were expressed as a percentage of the level of induction relative to the level of induction obtained with the reference (the level of induction of the reference is arbitrarily taken to be 100%).

For assay [2], the target named is hNurr1_RXRαFL (NURR1/RXRα heterodimer) (Homo sapiens, UniProt P19793+P43354). Put plainly: Transactivation assay in Cos-7 cells, NURR-1-Gal4 / RXRα, luciferase reporter. The format is cell-based. Particulars: for Emax: COS-7, read-out: hNurr1_RXRαFL Eff (%), efficacy in % relative to the reference XCT0135908 at 2·10^−5 M (=100%); for EC50: Cos-7 cells, overnight incubation; for hNurr1_RXRαFL Eff (%): efficacy in % relative to the reference XCT0135908 at 2·10^−5 M (=100%). How it is done: as §1, §2, §3, §4, §5, §6
Sequence of hNurr1_RXRαFL (NURR1/RXRα heterodimer) (P19793 whole entry, the tested form may be a part): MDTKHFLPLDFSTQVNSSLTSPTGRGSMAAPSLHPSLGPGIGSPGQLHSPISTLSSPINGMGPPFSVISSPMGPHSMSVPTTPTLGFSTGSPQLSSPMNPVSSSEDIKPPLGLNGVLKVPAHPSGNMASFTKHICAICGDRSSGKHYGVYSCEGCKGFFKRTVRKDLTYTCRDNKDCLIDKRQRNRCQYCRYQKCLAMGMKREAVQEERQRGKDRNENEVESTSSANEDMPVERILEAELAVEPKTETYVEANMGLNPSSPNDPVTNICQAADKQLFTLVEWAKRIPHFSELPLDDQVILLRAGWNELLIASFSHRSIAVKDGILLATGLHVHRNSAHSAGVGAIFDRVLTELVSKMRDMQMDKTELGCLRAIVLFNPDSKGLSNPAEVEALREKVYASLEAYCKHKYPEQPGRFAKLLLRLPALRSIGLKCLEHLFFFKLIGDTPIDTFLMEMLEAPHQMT
Sequence of hNurr1_RXRαFL (NURR1/RXRα heterodimer) (P43354 328-598): as the sequence (P43354 328-598) above
On the technique in general: In a reporter assay the amount or activity of a reporter protein is the signal.

By EC50 is commonly meant the concentration needed to bring the measured effect to its halfway point. High values mean lower potency in that assay, low ones higher potency in that assay. For the compound `CN1CCOc2ccc(S(=O)(=O)n3c(Cc4ccc(C(=O)O)s4)cc4cc(C(F)(F)F)ccc43)cc21` [Example 73, 5-[[1-[[4-methyl-3,4-dihydro-2H-benzo[1,4]oxazin-6-yl]-sulfonyl]-5-trifluoromethyl-1H-indol-2-yl]methyl]-thiophene-2-carboxylic acid], the Emax in assay [1] worked out at 89%; in assay [2] it was 94%. The EC50 in assay [1] was 66 nM; in assay [2] it was 37 nM.
In the same order, the values of `O=C(O)c1ccc(Cc2cc3cc(Cl)ccc3n2S(=O)(=O)c2ccc3c(c2)OCCO3)s1` [Example 77, 5-[[5-chloro-1-[(2,3-dihydro-benzo[1,4]dioxin-6-yl)sulfonyl]-1H-indol-2-yl]methyl]-thiophene-2-carboxylic acid] are 38%, 74%, 457 nM and 224 nM.
In the same order, the values of `Cc1c(Cc2nc(C(=O)O)cs2)n(S(=O)(=O)c2cccc(C(C)(C)C)c2)c2ccc(C(F)(F)F)cc12` [Example 86, 2-[[1-[[3-(1,1-dimethylethyl)-phenyl]sulfonyl]-3-methyl-5-(trifluoro-methyl)-1H-indol-2-yl]methyl]-thiazole-4-carboxylic acid] are 34%, 56%, 1480 nM and 490 nM.
In the same order, the values of `CC(C)(C)c1cccc(S(=O)(=O)n2c(Cc3nc(C(=O)O)cs3)cc3cc(C(F)(F)F)ccc32)c1` [Example 89, 2-[[1-[[3-(1,1-dimethylethyl)-phenyl]sulfonyl]-5-trifluoromethyl-1H-indol-2-yl]methyl]-thiazole-4-carboxylic acid] are 62%, 77%, 611 nM and 265 nM.
Turning to `COc1cc(Cc2cc3cc(Cl)ccc3n2S(=O)(=O)c2ccc(C(C)C)cc2)ccc1C(=O)O` [Example 98, 4-[[5-chloro-1-[[4-(1-methylethyl)phenyl]sulfonyl]-1H-indol-2-yl]methyl]-2-methoxybenzoic acid], in assay [1], the Emax amounted to 8% and the EC50 is above 10000 nM. In assay [2], the Emax was 64% and the midpoint of the response, the EC50, lay at 2120 nM.
In the same order, the values of `CC(C)c1ccc(S(=O)(=O)n2c(Cc3ccc(C(=O)O)c(O)c3)cc3cc(Cl)ccc32)cc1` [Example 99, 4-[[5-chloro-1-[[4-(1-methylethyl)phenyl]sulfonyl]-1H-indol-2-yl]methyl]-2-hydroxybenzoic acid] are 42%, 989 nM, 50% and 569 nM.
As for `C=C(c1ccc(C(=O)O)cc1)c1cc2cc(Cl)ccc2n1S(=O)(=O)c1ccc(C(C)C)cc1` [Example 102, 4-[1-[1[[4-(1-methylethyl)phenyl]sulfonyl]-5-(chloro)-1H-indol-2-yl]-1-ethenyl]-benzoic acid], in assay [1], the Emax is 27% and the midpoint of the response, the EC50, lay at 676 nM. In assay [2], the Emax was determined as 49% and the midpoint of the response, the EC50, lay at 363 nM.
In the same order, the values of `COC(=O)c1ccc(Cc2cc3cc(C(C)(C)C)ccc3n2S(=O)(=O)c2cccc(C(C)(C)C)c2)cc1` [Example 108, 4-[[1-[[3-(1,1-dimethylethyl)phenyl]sulfonyl]-5-(tert-butyl)-1H-indol-2-yl]methyl]benzoic acid, methyl ester] are 77%, 646 nM, 110% and 157 nM.
In the same order, the values of `COC(=O)c1ccc(Cc2cc3cc(C(F)(F)F)c(F)cc3n2S(=O)(=O)c2cccc(C(C)(C)C)c2)cc1` [Example 110, 4-[[1-[[3-(1,1-dimethylethyl)phenyl]sulfonyl]-5-(trifluoro)-6-fluoro-1H-indol-2-yl]methyl]benzoic acid, methyl ester] are 95%, 63 nM, 92% and 15 nM.
In the same order, the values of `COC(=O)c1ccc(Cc2cc3cccc(F)c3n2S(=O)(=O)c2cccc(C(C)(C)C)c2)cc1` [Example 113, 4-[[1-[[3-(1,1-dimethylethyl)phenyl]sulfonyl]-7-fluoro-1H-indol-2-yl]methyl]benzoic acid, methyl ester] are 97%, 1860 nM, 103% and above 10000 nM.
In the case of `CC(C)c1cccc(S(=O)(=O)n2c(Cc3ccc(C(=O)O)cc3)cc3cc(C(F)(F)F)ccc32)c1` [Example 114, 4-[[1-[[3-(1-methylethyl)phenyl]sulfonyl]-5-(trifluoromethyl)-1H-indol-2-yl]methyl]benzoic acid], in assay [1], it took 145 nM to reach a half-maximal effect (EC50) and the “hNurr1_RXRγFL Eff (%)” value is 76%. In assay [2], the 50% effective concentration (EC50) came to 63 nM and the “hNurr1_RXRαFL Eff (%)” value is 109%.
Take `CC(C)c1cccc(S(=O)(=O)n2c(Cc3ccc(C(=O)O)cc3)cc3cc(N4CCCC4)ccc32)c1` [Example 116, 4-[[1-[[3-(1-methylethyl)phenyl]sulfonyl]-5-(pyrrolidin)-1H-indol-2-yl]methyl]benzoic acid]: in assay [1], the EC50 turned out to be 1440 nM and the “hNurr1_RXRγFL Eff (%)” value is recorded as 50%. Also, in assay [2], a half-maximal response (EC50) required 871 nM and the “hNurr1_RXRαFL Eff (%)” value came to 74%.
Take `CC(C)(C)c1cccc(S(=O)(=O)n2c(Cc3ccc(C(=O)O)cc3)cc3cc(C(F)(F)F)c(F)cc32)c1` [Example 117, 4-[[1-[[3-(1,1-dimethylethyl)phenyl]sulfonyl]-5-(trifluoro)-6-fluoro-1H-indol-2-yl]methyl]benzoic acid]: the Emax worked out at 73% in assay [1] and 84% in assay [2]. Further, the EC50 in assay [1] is 91 nM; in assay [2], 39 nM.
Regarding `Cc1ccc2c(c1)cc(Cc1ccc(C(=O)O)cc1)n2S(=O)(=O)c1cccc(C(C)(C)C)c1` [Example 118, 4-[[1-[[3-(1,1-dimethylethyl)phenyl]sulfonyl]-5-(methyl)-1H-indol-2-yl]methyl]benzoic acid], in assay [1], the Emax came to 65% and a half-maximal response (EC50) required 473 nM. Moreover, in assay [2], the Emax was found to be 75% and the response was half-maximal at 279 nM (EC50).
In the same order, the values of `CC(C)(C)c1cccc(S(=O)(=O)n2c(Cc3ccc(C(=O)O)cc3)cc3c(Cl)c(Cl)ccc32)c1` [Example 119, 4-[[1-[[3-(1,1-dimethylethyl)phenyl]sulfonyl]-4-(chloro)-5-(chloro)-1H-indol-2-yl]methyl]benzoic acid] are 82%, 266 nM, 71% and 65 nM.
In the same order, the values of `COc1ccc(S(=O)(=O)n2c(Cc3ccc(C(=O)O)cc3)cc3cc(C(F)(F)F)ccc32)cn1` [Example 120, 4-[[1-[(6-methoxy-3-pyridinyl)sulfonyl]-5-(trifluoromethyl)-1H-indol-2-yl]methyl]benzoic acid] are 49%, 661 nM, 68% and 202 nM.
Turning to `Cc1cc(S(=O)(=O)n2c(Cc3ccc(C(=O)O)cc3)cc3cc(C(F)(F)F)ccc32)ccc1Cl` [Example 121, 4-[[1-[4-chloro-3-methyl-phenylsulfonyl]-5-(trifluoromethyl)-1H-indol-2-yl]methyl]benzoic acid], in assay [1], the Emax came to 56% and the EC50 is 433 nM. For the same compound, in assay [2], the Emax was determined as 65% and a half-maximal response (EC50) required 192 nM.
